Reference: patent US9409146B2, “Method for treating amyloid disease” (New York University, priority 2002, dated 2016)

How the values were obtained:
Aβ plaques = test: Histology and image analysis of Aβ plaques in brain (6E10 staining); type: in vivo, mouse
Method: (§1) Briefly, mice received their first immunization with K6Aβ1-30-NH2(E18E19) at 10.5-13 months of age (peptide: n=23; vehicle: n=24). The animals were bled prior to vaccination, 3 months following the first injection and at the time of sacrifice at 18 to 21 months. The mice were tested in the radial arm maze, subsequently perfused and their brains processed as described (Sigurdsson et al., Am. J. Pathol. 2001; 159:439-4471) (peptide: n=18; vehicle: n=18).
Mice were anesthetized with sodium pentobarbital (150 mg/kg, intraperitoneally), perfused transaortically with phosphate buffer and the brains processed as previously described (Sigurdsson et al., Neurobiol. Aging 1996; 17:893-901) The right hemisphere was immersion fixed in periodate-lysine-paraformaldehyde (PLP), whereas the left hemisphere was snap-frozen for measurements of Aβ3 levels using established ELISA methods (Mehta et al., Arch. Neurol. 2000; 57:100-105). Serial coronal sections (40 μm) were cut and every fifth section was stained with 6E10 which recognizes Aβ and stains both pre-amyloid and Aβ plaques (Kim et al., Neurosci Res Comm 1990; 7:113-122). […]
Immunohistochemistry of tissue sections was quantified with a Bioquant image analysis system, and unbiased sampling was used (West et al., Trends Neurosci. 1999; 22:51-61). […] Cortical area analyzed was dorsomedially from the cingulate cortex and extended ventrolaterally to the rhinal fissure within the right hemisphere. The area of the grid was 800×800 μm^2 and amyloid load was measured in 20 frames per mouse (each: 640×480 μm^2), chosen randomly. […] The number of plaques were also counted and the plaques were divided into three groups based on their size (small: 0.01-50 μm^2; medium: 50.01-1000 μm^2; large: >1000 μm^2).
(§2) The data for the amyloid burden within the brain were analyzed by a Student's t-test, one-tailed (GraphPad Prism). The radial arm maze data was analyzed by two-way ANOVA repeated measures. […] Correlation was determined by calculating the Pearson r correlation coefficient.

Tg2576 APP mouse model [1] = test: Radial arm maze after immunization of Tg2576 mice; type: in vivo
Method: as §1
The vaccination was performed in the Tg2576 APP mouse model developed by Karen Hsiao and colleagues (Hsiao et al., Science 1996:274:99-1022). These mice develop Aβ plaques as early as at 11 to 13 months of age. The animals were maintained on a 12-hour light-dark cycle, and had access to food and water ad libitum. The animal care was in accordance with institutional guidelines.
K6Aβ1-30-NH2(E18E19) was supplied as trifluoroacetic acid salt. […]
Animals were kept in test room throughout the experiment, behind a cover to prevent view of the apparatus and room. […] Total number of errors and time to enter all eight arms were recorded. […]
as §2

Tg2576 APP mouse model [2] = test: Antibody levels in plasma by ELISA after immunization; type: in vivo; conditions: for IgM response compared to IgG response: plasma at 1:500 dilution
Method: as §1
K6Aβ1-30-NH2(E18E19) was supplied as trifluoroacetic acid salt. The immunization procedure was performed as previously described by us (Sigurdsson et al., Am. J. Pathol. 2001; 159:439-4471) which is the same protocol as described by Schenk and colleagues (Schenk et al., Nature 1999; 400:173-1773) except that the peptide was not incubated overnight at 37° C. before injection. Briefly, the peptide was dissolved in phosphate-buffered saline (PBS) at a concentration of 2 mg/ml and then mixed 1:1 (v/v) with the adjuvant or PBS. Complete Freund's adjuvant was used for the first injection, incomplete Freund's adjuvant for the next three injections, and PBS from the fifth injection forward. The mice received a subcutaneous injection of 100 μl of the mixture (ie, 100 μg/100 μl) followed by a second injection 2 weeks later, and then monthly thereafter. Vaccination using the K6Aβ1-30-NH2(E18E19) peptide started when the mice were 10.5-13 months of age and the mice were sacrificed at 18-21 months of age.
Antibody levels were determined by 1:500 dilutions of plasma using an enzyme-linked immunosorbent assay (ELISA) as described previously (Jimenez-Huete et al., Alzheimers Reports 1998; 1:41-47) in which Aβ or its derivative is coated onto microtiter wells. The antibodies were detected by a goat anti-mouse IgG linked to a horseradish peroxidase (Amersham Pharmacia Biotech, Piscataway, N.J.) or a goat anti-mouse IgM peroxidase conjugate (Sigma, A8786), and tetramethyl benzidine (Pierce, Rockford, Ill.) was the substrate.

[3] = system: immobilized Aβ40 and Aβ42 peptides; test: Solid-phase binding assay (ELISA) of apoE preparations to immobilized Aβ peptides; conditions: delipidated or lipidated (HDL/r-HDL) apoE3 and apoE4, 0-150 nM, 3 h
Method: The binding of apoE to Aβ species was studied by ELISA using immobilized freshly prepared (non-aggregated) or 72-h-aggregated Aβ40 and Aβ42 and apoE3 or apoE4 isoforms with different degrees of lipidation. Polystyrene microtitre plates (Immulon2; Dynex Technology, Chantilly, Va., U.S.A.) were coated for 2 h. at 37° C. with either fresh or aggregated Aβ40 and Aβ42 (40(0 ng in 100 μl of 0.1 M NaHCO3, pH 9.6, per well). Under these conditions, 10 ng of fresh Aβ40, 9.6 ng of fresh Aβ42, 10.2 ng of aggregated Aβ40 and 10.9 ng of aggregated Aβ42 (representing 2.5, 2.4, 2.6 and 2.7% of the peptide offered, respectively) were coated to the microtitre wells, as determined by a modification of the Quantigold assay (Diversified Biotech, Boston, Mass., U.S.A.) for protein quantification. After blocking with Superblock (Pierce), increasing concentrations of apoE (0-150 nM in TBS; 100 μl per well) were added to the Aβ-coated wells and incubated for 3 h. at 37° C. Bound apoE was detected with monoclonal anti-apoE antibody (3D12, 1:1000) followed by alkaline-phosphatase-conjugated goat F(ab′)2 anti-mouse IgG (1:3000; BioSource International, Camarillo, Calif., U.S.A.). The reaction was developed for 30 min. with p-nitrophenyl phosphate in diethanolamine buffer (Bio-Rad, Hercules, Calif., U.S.A.), and quantified at 405 nm on a Microplate Reader (Cambridge Technology, Watertown, Mass., U.S.A.). […]

Chain of immobilized Aβ40 and Aβ42 peptides (P05067 672-711 limits assumed): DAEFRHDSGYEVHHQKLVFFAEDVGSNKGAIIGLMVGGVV

| Substance | effect on large plaques (Aβ plaques; large: >1000 μm^2) | reduction of medium sized plaques (Aβ plaques; medium: 50.01-1000 μm^2, p=0.04) [%] | reduction of small plaques (Aβ plaques; small: 0.01-50 μm^2, p=0.02) [%] | errors in the radial arm maze compared to vehicle-treated controls (Tg2576 APP mouse model [1]; Tg2576 transgenic mice, two-way ANOVA repeated measures, p<0.05) | radial arm maze performance compared to day 1 (Tg2576 APP mouse model [1]; immunized mice, p<0.01-0.05) | cross-reactivity of generated IgM antibodies (Tg2576 APP mouse model [2]; IgM antibodies after immunization) | IgM response compared to IgG response (Tg2576 APP mouse model [2]) | IgM response compared to IgG response (Tg2576 APP mouse model [2]; listed as K6Aβ1-30-NH2(E18E19)) | binding of apoE to Aβ [3] |
| --- | --- | --- | --- | --- | --- | --- | --- | --- | --- |
| K6Aβ1-30(E18E19): first 30 amino acids of amyloid-β with glutamate substituted for valine and phenylalanine in positions 18 and 19 | not significantly (N.S.) affected | 29 | 34 | significantly fewer errors | showed improvements on days 3, 5, and 7-9 | cross-reacted with Aβ1-40 | substantially more pronounced IgM response compared to IgG response | high IgM response and low IgG response |  |
| apoE: human apoE3 or apoE4 from Sf9, HEK-293 or RAW-264 cells, delipidated or in HDL/r-HDL particles |  |  |  |  |  |  |  |  | high affinity |
